The source of these data is ChEMBL document CHEMBL1125772, “Synthesis and receptor binding of enantiomeric N-substituted cis-N-[2-(3,4-dichlorophenyl)ethyl]-2-(1-pyrrolidinyl)cyclohexylamines as high-affinity sigma receptor ligands” (J Med Chem, 1991).

The target of this test is Kappa-type opioid receptor (Cavia porcellus, UniProt P41144). Briefly: Compound was tested for the inhibitory concentration against opioid receptor kappa by using [3H]bremazocine as radioligand in guinea pig brain; No inhibition.
Chain of Kappa-type opioid receptor (P41144 whole entry): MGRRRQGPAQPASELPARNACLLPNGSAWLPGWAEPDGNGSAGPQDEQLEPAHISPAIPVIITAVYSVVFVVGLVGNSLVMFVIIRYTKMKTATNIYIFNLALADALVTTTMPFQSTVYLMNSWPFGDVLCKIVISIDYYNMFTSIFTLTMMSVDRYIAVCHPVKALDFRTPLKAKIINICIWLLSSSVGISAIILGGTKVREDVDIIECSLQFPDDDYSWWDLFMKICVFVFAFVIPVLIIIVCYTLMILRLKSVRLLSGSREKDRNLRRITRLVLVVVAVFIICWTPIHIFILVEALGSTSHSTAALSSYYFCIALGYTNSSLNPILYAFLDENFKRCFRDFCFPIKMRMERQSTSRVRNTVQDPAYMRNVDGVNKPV

With `Clc1ccc(CCN[C@@H]2CCCC[C@@H]2N2CCCC2)cc1Cl`, the Ki entry is “Not Active”.
